# Measured values as given in PubChem BioAssay (NCI).
#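 Cells were grown in 96-well plates and exposed to each compound for 48 hours at five concentrations; endpoints were interpolated linearly between bracketing concentrations, or set to the highest concentration if not reached. The concentration for full growth arrest is given as TGI.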
# Experiments:
# Experiment in all cases: growth of human tumour cells (NCI), 48 h
# [1] = tested on: UACC-62 melanoma
# [2] = tested on: SK-MEL-28 melanoma
# [3] = tested on: CCRF-CEM leukemia
# [4] = tested on: M14 melanoma
# [5] = tested on: LXFL 529 NSCLC
# [6] = tested on: HL-60(TB) leukemia
# [7] = tested on: DMS 273 small cell lung
# [8] = tested on: HOP-18 NSCLC
# [9] = tested on: ACHN renal
# [10] = tested on: HCT-116 colon
# [11] = tested on: XF 498 CNS
# [12] = tested on: SN12C renal
# [13] = tested on: OVCAR-3 ovarian
# [14] = tested on: MALME-3M melanoma
# [15] = tested on: SNB-75 CNS
# [16] = tested on: MOLT-4 leukemia
# [17] = tested on: HOP-92 NSCLC
# [18] = tested on: IGROV1 ovarian
# [19] = tested on: OVCAR-5 ovarian
# [20] = tested on: HCT-15 colon
# [21] = tested on: SW-620 colon
# [22] = tested on: SNB-78 CNS
# [23] = tested on: K-562 leukemia
# [24] = tested on: UACC-257 melanoma
# [25] = tested on: COLO 205 colon
# [26] = tested on: HCC-2998 colon
# [27] = tested on: NCI-H522 lung
# [28] = tested on: RPMI-8226 leukemia
# [29] = tested on: SF-539 CNS
# [30] = tested on: OVCAR-8 ovarian
# [31] = tested on: DMS 114 small cell lung
# [32] = tested on: SNB-19 CNS
# [33] = tested on: SF-268 CNS
# [34] = tested on: M19-MEL melanoma
# [35] = tested on: LOX IMVI melanoma
# [36] = tested on: HOP-62 NSCLC
# [37] = tested on: UO-31 renal
# [38] = tested on: DLD-1 colon
# [39] = tested on: NCI-H23 lung
# [40] = tested on: SR leukemia
# [41] = tested on: KM20L2 colon
# [42] = tested on: EKVX NSCLC
# [43] = tested on: NCI-H460 lung
# [44] = tested on: A498 renal
# [45] = tested on: KM12 colon
# [46] = tested on: CAKI-1 renal
# [47] = tested on: 786-0 renal
# [48] = tested on: TK-10 renal
# [49] = tested on: A549 NSCLC
# [50] = tested on: SF-295 CNS
# [51] = tested on: NCI-H226 lung
# [52] = tested on: SK-MEL-2 melanoma
# [53] = tested on: SK-MEL-5 melanoma
# [54] = tested on: SK-OV-3 ovarian
# [55] = tested on: U251 CNS
# [56] = tested on: RXF 393 renal
# [57] = tested on: HT29 colon
# [58] = tested on: OVCAR-4 ovarian
# [59] = tested on: RXF-631 renal
smiles,measurement,setting,value
COC(=O)[C@@]12C(=O)CCC(=O)C1C1C(=CC2C)O[C@@H]2OC3(CCCCC3)O[C@H]12 (some centres not stated),TGI,[1],> 100 µM
same,TGI,[2],> 100 µM
same,TGI,[3],> 81 µM
same,TGI,[4],> 100 µM
same,TGI,[5],> 100 µM
same,TGI,[6],59.1 µM
same,TGI,[7],> 100 µM
same,TGI,[8],> 100 µM
same,TGI,[9],> 100 µM
same,TGI,[10],> 100 µM
same,TGI,[11],> 93.6 µM
same,TGI,[12],> 100 µM
same,TGI,[13],> 100 µM
same,TGI,[14],> 100 µM
same,TGI,[15],> 100 µM
same,TGI,[16],70.5 µM
same,TGI,[17],> 100 µM
same,TGI,[18],> 100 µM
same,TGI,[19],> 100 µM
same,TGI,[20],> 100 µM
same,TGI,[21],> 100 µM
same,TGI,[22],> 100 µM
same,TGI,[23],> 100 µM
same,TGI,[24],> 100 µM
same,TGI,[25],> 100 µM
same,TGI,[26],> 100 µM
same,TGI,[27],38.1 µM
same,TGI,[28],83.2 µM
same,TGI,[29],> 100 µM
same,TGI,[30],> 80.2 µM
same,TGI,[31],> 100 µM
same,TGI,[32],> 100 µM
same,TGI,[33],> 100 µM
same,TGI,[34],> 100 µM
same,TGI,[35],> 100 µM
same,TGI,[36],> 100 µM
same,TGI,[37],> 100 µM
same,TGI,[38],> 100 µM
same,TGI,[39],> 100 µM
same,TGI,[40],58.8 µM
same,TGI,[41],> 100 µM
same,TGI,[42],> 100 µM
same,TGI,[43],> 100 µM
same,TGI,[44],> 100 µM
same,TGI,[45],> 100 µM
same,TGI,[46],> 100 µM
same,TGI,[47],> 100 µM
same,TGI,[48],> 100 µM
same,TGI,[49],> 100 µM
same,TGI,[50],> 100 µM
same,TGI,[51],> 100 µM
same,TGI,[52],> 100 µM
same,TGI,[53],> 100 µM
same,TGI,[54],> 100 µM
same,TGI,[55],> 100 µM
same,TGI,[56],> 100 µM
same,TGI,[57],> 100 µM
same,TGI,[58],> 100 µM
COC12OCCN(CCO)C1=CC(=O)C1(C)N=NC(C)C12 (configuration not stated),TGI,[1],> 100 µM
same,TGI,[2],> 100 µM
same,TGI,[3],> 100 µM
same,TGI,[4],> 100 µM
same,TGI,[5],> 100 µM
same,TGI,[7],> 100 µM
same,TGI,[8],> 100 µM
same,TGI,[9],> 100 µM
same,TGI,[10],> 100 µM
same,TGI,[12],> 100 µM
same,TGI,[13],> 100 µM
same,TGI,[14],> 100 µM
same,TGI,[15],> 100 µM
same,TGI,[16],> 100 µM
same,TGI,[17],> 100 µM
same,TGI,[18],> 100 µM
same,TGI,[20],> 100 µM
same,TGI,[21],> 100 µM
same,TGI,[22],> 100 µM
same,TGI,[23],> 100 µM
same,TGI,[24],> 100 µM
same,TGI,[25],> 100 µM
same,TGI,[26],> 100 µM
same,TGI,[27],> 100 µM
same,TGI,[28],> 100 µM
same,TGI,[29],> 100 µM
same,TGI,[30],> 100 µM
same,TGI,[31],> 100 µM
same,TGI,[34],> 100 µM
same,TGI,[35],> 100 µM
same,TGI,[37],> 100 µM
same,TGI,[38],> 100 µM
same,TGI,[39],> 100 µM
same,TGI,[42],> 100 µM
same,TGI,[43],> 100 µM
same,TGI,[44],> 100 µM
same,TGI,[45],> 100 µM
same,TGI,[46],> 100 µM
same,TGI,[47],> 100 µM
same,TGI,[48],> 100 µM
same,TGI,[49],> 100 µM
same,TGI,[50],> 100 µM
same,TGI,[51],> 100 µM
same,TGI,[59],> 100 µM
same,TGI,[53],> 100 µM
same,TGI,[54],> 100 µM
same,TGI,[55],> 100 µM
same,TGI,[56],> 100 µM
same,TGI,[57],> 100 µM
